Data published in US5571831A, “Imidazole derivative, and pharmaceutical composition” (Kureha Chemical Industry Co., Ltd., priority 1992, dated 1996).
In brackets after ≈: the same amount, converted by molar mass.

Assays:
Test in all cases: Minimum inhibitory concentration (agar medium)
Format in all cases: cell-based
[1] = system: Candida krusei IFO 1395; settings: Pichia kudriavzevii, IFO1395, 72 h; Candida krusei IFO 1395, 27° C., 3 days, Sabouraud dextrose agar
Method: (§1) The minimum inhibitory concentrations (MIC) in vitro of the compounds 1 to 3 of the present invention against microorganisms belonging to the genera Candida and Aspergillus were determined. (1) The strains of the microorganisms used were as follows. The inoculation solutions were prepared at a concentration of 1×10^6 cells/ml. 5) Candida krusei IFO 1395 (2) As the medium, a Sabouraud dextrose agar medium (Difco: dextrose 2%, agar 1.8%, not adjusted in pH) was used. The samples of the compounds to be tested were used after dissolved in dimethyl sulfoxide. The concentrations of the samples were from […]. The agar media containing the different concentrations of the compounds to be tested were inoculated with the microorganisms, using a microplanter (Sakuma Seisakusho). The microorganisms belonging to the genera Candida were cultured at 27° C. for 3 days, and the microorganisms belonging to the genus Aspergillus at 27° C. for 5 days.

[2] = system: Aspergillus fumigatus IFO 5840; settings: IFO5840, 120 h; Aspergillus fumigatus IFO 5840, 27° C., 5 days, Sabouraud dextrose agar
Method: as §1, with “7) Aspergillus fumigatus” for “5) Candida krusei”, “5840” for “1395”

[3] = system: Candida albicans IFO 1270; settings: IFO1270, 72 h; Candida albicans IFO 1270, 27° C., 3 days, Sabouraud dextrose agar
Method: as §1, with “2)” for “5)”, “albicans” for “krusei”, “1270” for “1395”

[4] = system: Candida albicans IFO 1060; settings: IFO1060, 72 h; Candida albicans IFO 1060, 27° C., 3 days, Sabouraud dextrose agar
Method: as §1, with “1)” for “5)”, “albicans” for “krusei”, “1060” for “1395”

[5] = system: Candida tropicaris IFO 1400; settings: IFO1400, 72 h; Candida tropicaris IFO 1400, 27° C., 3 days, Sabouraud dextrose agar
Method: as §1, with “4)” for “5)”, “tropicaris” for “krusei”, “1400” for “1395”

[6] = system: Candida parapsilosis IFO 1396; settings: Lodderomyces parapsilosis, IFO1396, 72 h; Candida parapsilosis IFO 1396, 27° C., 3 days, Sabouraud dextrose agar
Method: as §1, with “6)” for “5)”, “parapsilosis” for “krusei”, “1396” for “1395”

[7] = system: Aspergillus fumigatus IFO 9733; settings: IFO9733, 120 h; Aspergillus fumigatus IFO 9733, 27° C., 5 days, Sabouraud dextrose agar
Method: as §1, with “8) Aspergillus fumigatus” for “5) Candida krusei”, “9733” for “1395”

[8] = system: Candida albicans ATCC 762; settings: ATCC762, 72 h; Candida albicans ATCC 762, 27° C., 3 days, Sabouraud dextrose agar
Method: as §1, with “3)” for “5)”, “albicans ATCC 762” for “krusei IFO 1395”

Row | MIC [1] | MIC [2] | MIC [3] | MIC [4] | MIC [5] | MIC [6] | MIC [7] | MIC [8] | SMILES
1 | 50 µg/mL (≈ 165 µM) | 50 µg/mL (≈ 165 µM) | 50 µg/mL (≈ 165 µM) | 50 µg/mL (≈ 165 µM) | 50 µg/mL (≈ 165 µM) | 50 µg/mL (≈ 165 µM) | 50 µg/mL (≈ 165 µM) | 50 µg/mL (≈ 165 µM) | CC1(C)CCC(c2ccc(F)cc2)CC1(O)Cn1ccnc1 (racemic) [Compound 1, 2,2-dimethyl-5-(4-fluorophenyl)-1-(1H-imidazol-1-ylmethyl)-cyclohexane-1-ol]
2 | > 100 µg/mL | 100 µg/mL (≈ 314 µM) | 25 µg/mL (≈ 78.4 µM) | 50 µg/mL (≈ 157 µM) | 100 µg/mL (≈ 314 µM) | > 100 µg/mL | 100 µg/mL (≈ 314 µM) | 25 µg/mL (≈ 78.4 µM) | CC1(C)CCC(c2ccc(Cl)cc2)CC1(O)Cn1ccnc1 (racemic) [Compound 2, 2,2-dimethyl-5-(4-chlorophenyl)-1-(1H-imidazol-1-ylmethyl)-cyclohexane-1-ol]
3 | 200 µg/mL (≈ 666 µM) | 200 µg/mL (≈ 666 µM) | 100 µg/mL (≈ 333 µM) | 50 µg/mL (≈ 166 µM) | 50 µg/mL (≈ 166 µM) | 200 µg/mL (≈ 666 µM) | 200 µg/mL (≈ 666 µM) | 50 µg/mL (≈ 166 µM) | CC1(C)CC[C@@H](c2ccc(O)cc2)C[C@@]1(O)Cn1ccnc1 (relative stereo) [Compound 3, 2,2-dimethyl-5-(4-hydroxyphenyl)-1-(1H-imidazoly-1-yl-methyl)-cyclohexane-1-ol]
4 | > 400 µg/mL | > 400 µg/mL | 200 µg/mL (≈ 729 µM) | 200 µg/mL (≈ 729 µM) | > 400 µg/mL | > 400 µg/mL | > 400 µg/mL | 200 µg/mL (≈ 729 µM) | OC1(Cn2ccnc2)CCCC(c2ccc(F)cc2)C1 (centres unmarked) [Compound C, 3-(4-fluorophenyl)-1-(1H-imidazol-1-ylmethyl)-cyclohexane-1-ol, reference compound]
